The record followed here is US20200352184A1, “Prevention of Postharvest Physiological Deterioration using Sulfur-Donating Compounds” (Apeel Technology, Inc., priority 2017, published 2020).

A short description of this series: Saturation concentration in water. It counts as physicochemical. As to conditions: standard temperature and pressure stated for sodium thiosulfate. Here is the method: For example, at standard temperature and pressure, water can become saturated with sodium thiosulfate at a concentration of about 700 mg/mL. Accordingly, in some embodiments, the concentration of a solution (e.g., an aqueous solution) containing sodium thiosulfate can be about 700 mg/mL. […] Accordingly, in some embodiments, the concentration of the sodium thiosulfate is between about 400 and about 700 mg/mL (e.g., between about 500 and about 700 mg/mL). In some embodiments, the concentration of the sodium thiosulfate salt is about 100, about 200, about 300, about 400, about 500, about 600, or about 700 mg/mL. In some embodiments, the concentration can be lower than 700 mg/mL.
In some embodiments, a metabisulfite solution (e.g., sodium metabisulfite) solution in water can become saturated at about 300 mg/mL. Accordingly, in some embodiments solutions of sodium metabisulfite are used at a concentration of about 300 mg/mL, about 200 mg/mL, or about 100 mg/mL.

On to `O.O.O.O.O.O=S([O-])([O-])=S.[Na+].[Na+]` [sodium thiosulfate, sodium thiosulfate pentahydrate], for which the “concentration at which water becomes saturated” value is “about 700 mg/mL”.

For the compound `O=S([O-])S(=O)(=O)[O-].[Na+].[Na+]` [sodium metabisulfite], the “concentration at which water becomes saturated” value was “about 300 mg/mL”.
